Measured values reported in patent US11427549B2, “Pyrimidinyloxy benzo-fused compounds as herbicides” (FMC Corporation, priority 2017, dated 2022).

Tests used:
[1] = test system: barnyardgrass (Echinochloa crus-galli); assay: Test B flooded paddy test, barnyardgrass; conditions: Echinochloa crus-galli, read-out: Plant response rating, Barnyardgrass (0 to 100 scale, 0 is no effect, 100 is complete control)
[2] = test system: ryegrass, Italian (Italian ryegrass, Lolium multiflorum); assay: Test A postemergence, ryegrass, Italian; format: in vivo; conditions: Lolium multiflorum, post-emergence, 240 h, 0 to 100 scale (0 no effect, 100 complete control), read-out: Plant response rating, Ryegrass, Italian; for pest or weed control at 31 g/ha: 31 g ai/ha; for pest or weed control at 125 g/ha: 125 g ai/ha
[3] = test system: ragweed (common ragweed, Ambrosia elatior); assay: Test A postemergence, ragweed; format: in vivo; conditions: Ambrosia artemisiifolia, post-emergence, 240 h, 0 to 100 scale (0 no effect, 100 complete control), read-out: Plant response rating, Ragweed; for pest or weed control at 31 g/ha: 31 g ai/ha; for pest or weed control at 125 g/ha: 125 g ai/ha
[4] = test system: ragweed (common ragweed, Ambrosia elatior); assay: Test A preemergence, ragweed; format: in vivo; conditions: Ambrosia artemisiifolia, pre-emergence, 240 h, 0 to 100 scale (0 no effect, 100 complete control), read-out: Plant response rating, Ragweed; for pest or weed control at 31 g/ha: 31 g ai/ha; for pest or weed control at 125 g/ha: 125 g ai/ha
[5] = test system: foxtail, giant (giant foxtail, Setaria faberii); assay: Test A preemergence, foxtail, giant; format: in vivo; conditions: Setaria faberi, pre-emergence, 240 h, 0 to 100 scale (0 no effect, 100 complete control), read-out: Plant response rating, Foxtail, Giant; for pest or weed control at 31 g/ha: 31 g ai/ha; for pest or weed control at 125 g/ha: 125 g ai/ha
[6] = test system: wheat (Triticum aestivum); assay: Test A postemergence, wheat; format: in vivo; conditions: Triticum aestivum, post-emergence, 240 h, 0 to 100 scale (0 no effect, 100 complete control), read-out: Plant response rating, Wheat; for plant injury at 31 g/ha: 31 g ai/ha; for plant injury at 125 g/ha: 125 g ai/ha
[7] = test system: pigweed (Amaranthus retroflexus); assay: Test A preemergence, pigweed; format: in vivo; conditions: Amaranthus retroflexus, pre-emergence, 240 h, 0 to 100 scale (0 no effect, 100 complete control), read-out: Plant response rating, Pigweed; for pest or weed control at 31 g/ha: 31 g ai/ha; for pest or weed control at 125 g/ha: 125 g ai/ha
corn (Zea mays) = assay: Test A postemergence, corn; format: in vivo; conditions: Zea mays, post-emergence, 240 h, 0 to 100 scale (0 no effect, 100 complete control); for Corn plant response rating (crop injury, 0 = no effect, 100 = complete kill) at 31 g/ha: 31 g ai/ha; for Corn plant response rating (crop injury, 0 = no effect, 100 = complete kill) at 125 g/ha: 125 g ai/ha
[8] = test system: barnyardgrass (Echinochloa crus-galli); assay: Test A preemergence, barnyardgrass; format: in vivo; conditions: Echinochloa crus-galli, pre-emergence, 240 h, 0 to 100 scale (0 no effect, 100 complete control), read-out: Plant response rating, Barnyardgrass; for pest or weed control at 31 g/ha: 31 g ai/ha; for pest or weed control at 125 g/ha: 125 g ai/ha
[9] = test system: ryegrass, Italian (Italian ryegrass, Lolium multiflorum); assay: Test A preemergence, ryegrass, Italian; format: in vivo; conditions: Lolium multiflorum, pre-emergence, 240 h, 0 to 100 scale (0 no effect, 100 complete control), read-out: Plant response rating, Ryegrass, Italian; for pest or weed control at 31 g/ha: 31 g ai/ha; for pest or weed control at 125 g/ha: 125 g ai/ha
kochia (Kochia scoparia) [10] = assay: Test A postemergence, kochia; format: in vivo; conditions: Bassia scoparia, post-emergence, 240 h, 0 to 100 scale (0 no effect, 100 complete control), read-out: Plant response rating, Kochia; for pest or weed control at 31 g/ha: 31 g ai/ha; for pest or weed control at 125 g/ha: 125 g ai/ha
rice (Oryza sativa) = assay: Test B flooded paddy test, rice; conditions: Oryza sativa, read-out: Plant response rating, Rice (0 to 100 scale, 0 is no effect, 100 is complete control)
[11] = test system: barnyardgrass (Echinochloa crus-galli); assay: Test A postemergence, barnyardgrass; format: in vivo; conditions: Echinochloa crus-galli, post-emergence, 240 h, 0 to 100 scale (0 no effect, 100 complete control), read-out: Plant response rating, Barnyardgrass; for pest or weed control at 31 g/ha: 31 g ai/ha; for pest or weed control at 125 g/ha: 125 g ai/ha
[12] = test system: ducksalad (Heteranthera limosa); assay: Test B flooded paddy test, ducksalad; conditions: Heteranthera limosa, read-out: Plant response rating, Ducksalad (0 to 100 scale, 0 is no effect, 100 is complete control)
[13] = test system: galium (catchweed bedstraw, Galium aparine); assay: Test A postemergence, galium; format: in vivo; conditions: Galium, post-emergence, 240 h, 0 to 100 scale (0 no effect, 100 complete control), read-out: Plant response rating, Galium; for pest or weed control at 31 g/ha: 31 g ai/ha; for pest or weed control at 125 g/ha: 125 g ai/ha
kochia (Kochia scoparia) [14] = assay: Test A preemergence, kochia; format: in vivo; conditions: Bassia scoparia, pre-emergence, 240 h, 0 to 100 scale (0 no effect, 100 complete control), read-out: Plant response rating, Kochia; for pest or weed control at 31 g/ha: 31 g ai/ha; for pest or weed control at 125 g/ha: 125 g ai/ha
[15] = test system: pigweed (Amaranthus retroflexus); assay: Test A postemergence, pigweed; format: in vivo; conditions: Amaranthus retroflexus, post-emergence, 240 h, 0 to 100 scale (0 no effect, 100 complete control), read-out: Plant response rating, Pigweed; for pest or weed control at 31 g/ha: 31 g ai/ha; for pest or weed control at 125 g/ha: 125 g ai/ha
[16] = test system: blackgrass (Alopecurus myosuroides); assay: Test A postemergence, blackgrass; format: in vivo; conditions: Alopecurus myosuroides, post-emergence, 240 h, 0 to 100 scale (0 no effect, 100 complete control), read-out: Plant response rating, Blackgrass; for pest or weed control at 31 g/ha: 31 g ai/ha; for pest or weed control at 125 g/ha: 125 g ai/ha

| SMILES | pest or weed control at 250 g/ha [1] [%] | pest or weed control at 31 g/ha [2] [%] | pest or weed control at 125 g/ha [2] [%] | pest or weed control at 31 g/ha [3] [%] | pest or weed control at 125 g/ha [3] [%] | pest or weed control at 31 g/ha [4] [%] | pest or weed control at 125 g/ha [4] [%] | pest or weed control at 31 g/ha [5] [%] | pest or weed control at 125 g/ha [5] [%] | plant injury at 31 g/ha [6] [%] | plant injury at 125 g/ha [6] [%] | pest or weed control at 31 g/ha [7] [%] | pest or weed control at 125 g/ha [7] [%] | Corn plant response rating (crop injury, 0 = no effect, 100 = complete kill) at 31 g/ha (corn (Zea mays)) [%] | Corn plant response rating (crop injury, 0 = no effect, 100 = complete kill) at 125 g/ha (corn (Zea mays)) [%] | pest or weed control at 31 g/ha [8] [%] | pest or weed control at 125 g/ha [8] [%] | pest or weed control at 31 g/ha [9] [%] | pest or weed control at 125 g/ha [9] [%] | pest or weed control at 31 g/ha (kochia (Kochia scoparia) [10]) [%] | other results |
| --- | --- | --- | --- | --- | --- | --- | --- | --- | --- | --- | --- | --- | --- | --- | --- | --- | --- | --- | --- | --- | --- |
| O=C1OCc2cccc(Oc3ncc(Cl)cn3)c2C1CCC(F)(F)F (stereo not drawn) [Compound 29, 5-[(5-Chloro-2-pyrimidinyl)oxy]-1,4-dihydro-4-(3,3,3-trifluoropropyl)-3H-2-benzopyran-3-one] | 0 | 0 | 30 | 10 | 30 | 0 | 10 | 0 | 20 | 0 | 10 | 0 | 80 | 10 | 30 | 0 | 10 | 0 | 0 | 20 | pest or weed control at 125 g/ha (kochia (Kochia scoparia) [10]): 60%; plant injury at 250 g/ha (rice (Oryza sativa)): 0%; pest or weed control at 31 g/ha [11]: 0%; pest or weed control at 125 g/ha [11]: 30%; pest or weed control at 250 g/ha [12]: 0%; pest or weed control at 31 g/ha [13]: 20%; pest or weed control at 125 g/ha [13]: 50%; pest or weed control at 31 g/ha (kochia (Kochia scoparia) [14]): 0%; pest or weed control at 125 g/ha (kochia (Kochia scoparia) [14]): 10%; pest or weed control at 31 g/ha [15]: 30%; pest or weed control at 125 g/ha [15]: 70%; pest or weed control at 31 g/ha [16]: 30%; pest or weed control at 125 g/ha [16]: 30% |
| O=C1CCC(CCCC(F)(F)F)c2c(Oc3ncc(Cl)cn3)cccc21 (stereo not drawn) [Compound 30, 5-[(5-Chloro-2-pyrimidinyl)oxy]-3,4-dihydro-4-(4,4,4-trifluorobutyl)-1(2H)-naphthalenone] | 20 | 30 | 30 | 10 | 10 | 0 | 0 | 10 | 80 | 0 | 20 | 10 | 60 | 30 | 30 | 0 | 40 | 0 | 10 | 10 | pest or weed control at 125 g/ha (kochia (Kochia scoparia) [10]): 30%; plant injury at 250 g/ha (rice (Oryza sativa)): 0%; pest or weed control at 31 g/ha [11]: 20%; pest or weed control at 125 g/ha [11]: 30%; pest or weed control at 250 g/ha [12]: 85%; pest or weed control at 31 g/ha [13]: 30%; pest or weed control at 125 g/ha [13]: 80%; pest or weed control at 31 g/ha (kochia (Kochia scoparia) [14]): 0%; pest or weed control at 125 g/ha (kochia (Kochia scoparia) [14]): 0%; pest or weed control at 31 g/ha [15]: 70%; pest or weed control at 125 g/ha [15]: 90%; pest or weed control at 31 g/ha [16]: 20%; pest or weed control at 125 g/ha [16]: 60% |
